Some test systems named below: CCRF-CEM leukemia; M14 melanoma; NCI-H23 lung; OVCAR-3 ovarian; OVCAR-4 ovarian; OVCAR-8 ovarian; PC-3 prostate; RPMI-8226 leukemia; SNB-19 CNS; UACC-257 melanoma.
Assay in all cases: inhibition of tumour cell growth, NCI panel, 48 h

Molecules are shown by their SMILES. “And” between values parts separate entries of the source, which are not always exact repeats. Equal entries are not always repeated.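 These data come from cells grown in 96-well plates and exposed to compound for 48 hours at five concentrations. GI50 is the concentration that inhibits growth by half. TGI: concentration producing complete growth inhibition.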

With `COc1cc(-n2cc(-c3ccc(Cl)cc3)n(-c3ccccc3)c2=O)cc(OC)c1OC`, the GI50 was 2.67 µM in the assay on CCRF-CEM leukemia; 23.8 µM in the assay on M14 melanoma; 35.1 µM in the assay with NCI-H23 lung; 16.3 µM with OVCAR-3 ovarian; 17.9 µM in the assay on OVCAR-4 ovarian; 27.7 µM in the assay on OVCAR-8 ovarian. Moreover, the GI50 with PC-3 prostate was more than 37.7 µM; with RPMI-8226 leukemia it was 30.6 µM; in the assay with SNB-19 CNS, 36.7 µM; in the assay with UACC-257 melanoma, 15.5 µM. The TGI is 98.9 µM with M14 melanoma; more than 100 µM in the assay on NCI-H23 lung; more than 86.2 µM in the assay on OVCAR-3 ovarian; more than 100 µM in the assay with OVCAR-4 ovarian; more than 100 µM in the assay on OVCAR-8 ovarian; more than 100 µM with PC-3 prostate. Besides, the TGI was more than 100 µM in the assay with RPMI-8226 leukemia, more than 100 µM with SNB-19 CNS and 71.9 µM in the assay on UACC-257 melanoma.

Regarding `ClCc1ccccc1Cn1cnc2nc(Cl)nc(Cl)c21`, the GI50 was 0.104 µM in the assay on CCRF-CEM leukemia; 0.851 µM with M14 melanoma; 2.21 µM in the assay with NCI-H23 lung; 5.29 µM in the assay with OVCAR-3 ovarian; 1.76 µM in the assay on OVCAR-4 ovarian; 2.54 µM in the assay on OVCAR-8 ovarian. Also, the GI50 was 0.323 µM in the assay on PC-3 prostate, 0.0318 µM with RPMI-8226 leukemia, 1.14 µM in the assay with SNB-19 CNS and 1.6 µM with UACC-257 melanoma. Besides, the TGI in the assay with CCRF-CEM leukemia is 0.305 µM; in the assay with M14 melanoma, 2.46 µM; in the assay on NCI-H23 lung, 7.14 µM; in the assay on OVCAR-3 ovarian, 12.3 µM; in the assay with OVCAR-4 ovarian it was 4.46 µM; in the assay with OVCAR-8 ovarian it was 8.88 µM. The TGI was found to be 1.81 µM in the assay on PC-3 prostate, 0.272 µM in the assay on RPMI-8226 leukemia, 2.51 µM in the assay with SNB-19 CNS and 5.22 µM with UACC-257 melanoma.

As for `Oc1ccc(N=Nc2ccc(Br)cc2)c(O)c1`, the GI50 in the assay with CCRF-CEM leukemia was 1.91 µM; with M14 melanoma, 2.2 µM; in the assay on NCI-H23 lung it was 3.22 µM; with OVCAR-3 ovarian, 3.2 µM; with OVCAR-4 ovarian it was 6.31 µM; in the assay with OVCAR-8 ovarian it was 3.69 µM. Besides, the GI50 with PC-3 prostate was 3.08 µM; in the assay with RPMI-8226 leukemia, 1.76 µM; with SNB-19 CNS, 4 µM; with UACC-257 melanoma it was 7.52 µM. The TGI was 4.82 µM in the assay on CCRF-CEM leukemia; 5.62 µM in the assay with M14 melanoma; 26.9 µM in the assay with NCI-H23 lung; 14.7 µM in the assay with OVCAR-3 ovarian; more than 100 µM in the assay with OVCAR-4 ovarian; 21.2 µM with OVCAR-8 ovarian. Further, the TGI with PC-3 prostate was 21.7 µM; in the assay with RPMI-8226 leukemia, 5.35 µM; in the assay with SNB-19 CNS it was 68.8 µM; in the assay on UACC-257 melanoma, 30.7 µM.

On to `COc1cccc(S(=O)(=O)NC2=NCCN2C(=S)SN2CCn3c2nsc3=S)c1`, for which the GI50 in the assay with CCRF-CEM leukemia was 32.1 µM; in the assay with M14 melanoma it was 31.4 µM; in the assay with OVCAR-3 ovarian it was 25.6 µM; in the assay with OVCAR-4 ovarian, 34.2 µM; in the assay with OVCAR-8 ovarian, 44.4 µM; in the assay on PC-3 prostate, 36.2 µM. Also, the GI50 in the assay with RPMI-8226 leukemia was 26.1 µM; in the assay on SNB-19 CNS, 49.8 µM; in the assay on UACC-257 melanoma it was 31.5 µM. Moreover, the TGI in the assay on CCRF-CEM leukemia was more than 100 µM; in the assay with M14 melanoma, more than 100 µM; with OVCAR-3 ovarian, 56.5 µM; with OVCAR-4 ovarian it was more than 100 µM; in the assay with OVCAR-8 ovarian, more than 100 µM; in the assay with PC-3 prostate, more than 100 µM. Besides, the TGI with RPMI-8226 leukemia was 97.6 µM; in the assay on SNB-19 CNS it was more than 100 µM; with UACC-257 melanoma, 86.2 µM.

Consider `N#Cc1c(N)nc2c(c1-c1ccc(Cl)cc1)COc1ccc(F)cc1-2`, for which the GI50 was 44.2 µM with CCRF-CEM leukemia; 29.8 µM in the assay with M14 melanoma; 28.4 µM in the assay on NCI-H23 lung; 23.2 µM with OVCAR-3 ovarian; 34.7 µM with OVCAR-4 ovarian; 32.5 µM in the assay on OVCAR-8 ovarian. In addition, the GI50 in the assay with PC-3 prostate was 29.7 µM; in the assay on RPMI-8226 leukemia it was 18.7 µM; in the assay with UACC-257 melanoma, 29.4 µM. For the same molecule, the TGI is more than 100 µM with CCRF-CEM leukemia; 96.1 µM with M14 melanoma; more than 100 µM with NCI-H23 lung; 50.2 µM with OVCAR-3 ovarian; more than 100 µM with OVCAR-4 ovarian; more than 100 µM in the assay on OVCAR-8 ovarian. Besides, the figures for the TGI in the assay with PC-3 prostate, in the assay with RPMI-8226 leukemia and with UACC-257 melanoma were 65.7 µM, 41.2 µM and 90.8 µM, respectively.

`COc1cc2c3c(n(CCCN=[N+]=[N-])c(=O)c2cc1OC)-c1ccccc1C3=O`: the GI50 in the assay with CCRF-CEM leukemia was 3.37 µM; in the assay with M14 melanoma it was 1.82 µM; with NCI-H23 lung, 3.23 µM; in the assay on OVCAR-3 ovarian, 4.58 µM; in the assay on OVCAR-4 ovarian, 22.6 µM; in the assay on OVCAR-8 ovarian, 5.68 µM. Further, the GI50 in the assay with PC-3 prostate was more than 100 µM; with RPMI-8226 leukemia, 6.19 µM; in the assay with SNB-19 CNS, 52.7 µM. The TGI is more than 100 µM in the assay with CCRF-CEM leukemia; 13.9 µM in the assay on M14 melanoma; 21.8 µM with NCI-H23 lung; 24.5 µM with OVCAR-3 ovarian; more than 100 µM in the assay with OVCAR-4 ovarian; more than 100 µM in the assay with OVCAR-8 ovarian. The TGI with PC-3 prostate, in the assay with RPMI-8226 leukemia and with SNB-19 CNS was more than 100 µM each time.

Consider `O=C(COc1ccccc1)NNc1ccccc1`, for which the GI50 was 8.18 µM in the assay with CCRF-CEM leukemia; 15.2 µM and 13.9 µM in the assay on M14 melanoma; more than 300 µM in the assay on NCI-H23 lung; > 95.4 µM and 191 µM in the assay on OVCAR-3 ovarian; more than 300 µM in the assay with OVCAR-4 ovarian; > 56.1 µM and 58.3 µM in the assay with OVCAR-8 ovarian. Moreover, the GI50 is 45.3 µM and 44.1 µM in the assay with PC-3 prostate; 68.3 µM and 274 µM in the assay on RPMI-8226 leukemia; 234 µM in the assay with SNB-19 CNS. Further, the TGI with M14 melanoma was 171 µM; in the assay on NCI-H23 lung, more than 300 µM; in the assay on OVCAR-3 ovarian it was more than 300 µM; in the assay on OVCAR-4 ovarian, more than 300 µM; in the assay with OVCAR-8 ovarian, more than 300 µM; in the assay on PC-3 prostate it was more than 300 µM. Also, the TGI in the assay on RPMI-8226 leukemia and in the assay on SNB-19 CNS was more than 300 µM in each case.

(Values after PubChem BioAssay (NCI).)
